Measurements taken from ChEMBL document CHEMBL4219215, “Discovery of {4-[4,9-bis(ethyloxy)-1-oxo-1,3-dihydro-2H-benzo[f]isoindol-2-yl]-2-fluorophenyl}acetic acid (GSK726701A), a novel EP4 receptor partial agonist for the treatment of pain” (Bioorg Med Chem Lett, 2018).

How the values were obtained:
[1] = Half life in orally dosed dog; format: ADME, organism-based, Canis lupus familiaris; conditions: in vivo, po
[2] = organism: Homo sapiens; experiment: Selectivity index, ratio of antagonist activity at IP receptor (unknown origin) to pEC50 for partial agonist activity at human EP4 receptor expressed in HEK293-AEQ17 cells; format: cell-based
[3] = Oral bioavailability in rat at 1 mg/kg; format: ADME, organism-based; conditions: in vivo
[4] = target: Prostaglandin E2 receptor EP2 subtype (Homo sapiens) (UniProt P43116); experiment: Agonist activity at EP2 receptor (unknown origin) assessed as induction of receptor activation at 1 uM; format: functional
Chain of Prostaglandin E2 receptor EP2 subtype (Homo sapiens) (P43116 whole entry): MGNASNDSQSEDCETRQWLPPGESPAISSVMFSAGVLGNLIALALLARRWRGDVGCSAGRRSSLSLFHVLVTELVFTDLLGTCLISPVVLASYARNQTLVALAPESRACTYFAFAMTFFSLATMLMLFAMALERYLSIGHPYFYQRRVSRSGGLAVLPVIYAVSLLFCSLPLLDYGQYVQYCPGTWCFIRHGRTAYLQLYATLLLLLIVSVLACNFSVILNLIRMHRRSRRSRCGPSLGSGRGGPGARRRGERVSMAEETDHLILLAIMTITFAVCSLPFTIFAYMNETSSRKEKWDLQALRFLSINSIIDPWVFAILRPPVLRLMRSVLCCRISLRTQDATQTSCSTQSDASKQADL

[5] = Oral bioavailability in dog; format: ADME, organism-based, Canis lupus familiaris; conditions: in vivo
[6] = target: T1, Cytochrome P450 3A4 (Homo sapiens, UniProt P08684); experiment: Inhibition of human recombinant CYP3A4 using DEF substrate; format: ADME; conditions: human, recombinant enzyme
T1 sequence (P08684 whole entry): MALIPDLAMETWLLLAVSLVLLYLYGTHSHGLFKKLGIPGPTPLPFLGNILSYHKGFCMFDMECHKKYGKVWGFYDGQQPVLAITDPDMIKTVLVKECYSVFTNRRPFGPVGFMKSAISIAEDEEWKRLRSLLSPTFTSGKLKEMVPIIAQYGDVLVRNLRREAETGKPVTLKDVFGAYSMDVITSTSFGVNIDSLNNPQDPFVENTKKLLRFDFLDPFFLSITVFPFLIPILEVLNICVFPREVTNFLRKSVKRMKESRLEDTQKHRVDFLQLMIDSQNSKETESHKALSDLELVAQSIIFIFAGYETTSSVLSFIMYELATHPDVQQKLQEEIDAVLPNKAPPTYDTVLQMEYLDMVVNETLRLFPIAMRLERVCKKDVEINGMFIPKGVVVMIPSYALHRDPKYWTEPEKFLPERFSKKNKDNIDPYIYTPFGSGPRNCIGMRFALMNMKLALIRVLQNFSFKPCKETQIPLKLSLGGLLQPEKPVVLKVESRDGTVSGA

[7] = target: T2, Cytochrome P450 1A2 (Homo sapiens, UniProt P05177); experiment: Inhibition of human recombinant CYP1A2; format: ADME; conditions: human, recombinant enzyme
T2 sequence (P05177 whole entry): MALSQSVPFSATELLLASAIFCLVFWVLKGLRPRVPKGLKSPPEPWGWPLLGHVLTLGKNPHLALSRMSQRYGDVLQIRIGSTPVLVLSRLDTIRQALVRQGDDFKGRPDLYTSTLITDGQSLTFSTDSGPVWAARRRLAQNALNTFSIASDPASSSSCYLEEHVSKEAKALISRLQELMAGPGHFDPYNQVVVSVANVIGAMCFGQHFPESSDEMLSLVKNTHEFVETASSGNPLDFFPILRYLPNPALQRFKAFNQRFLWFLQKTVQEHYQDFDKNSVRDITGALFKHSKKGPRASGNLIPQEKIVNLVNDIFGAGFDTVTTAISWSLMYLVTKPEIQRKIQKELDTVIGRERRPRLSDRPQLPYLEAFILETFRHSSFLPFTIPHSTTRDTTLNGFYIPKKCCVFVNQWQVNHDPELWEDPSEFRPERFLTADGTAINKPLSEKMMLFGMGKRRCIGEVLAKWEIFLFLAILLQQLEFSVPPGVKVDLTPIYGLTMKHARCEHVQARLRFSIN

[8] = target: Cytochrome P450 2C19 (Homo sapiens, UniProt P33261); experiment: Inhibition of human recombinant CYP2C19; format: ADME; conditions: human, recombinant enzyme
Chain of Cytochrome P450 2C19 (P33261 whole entry): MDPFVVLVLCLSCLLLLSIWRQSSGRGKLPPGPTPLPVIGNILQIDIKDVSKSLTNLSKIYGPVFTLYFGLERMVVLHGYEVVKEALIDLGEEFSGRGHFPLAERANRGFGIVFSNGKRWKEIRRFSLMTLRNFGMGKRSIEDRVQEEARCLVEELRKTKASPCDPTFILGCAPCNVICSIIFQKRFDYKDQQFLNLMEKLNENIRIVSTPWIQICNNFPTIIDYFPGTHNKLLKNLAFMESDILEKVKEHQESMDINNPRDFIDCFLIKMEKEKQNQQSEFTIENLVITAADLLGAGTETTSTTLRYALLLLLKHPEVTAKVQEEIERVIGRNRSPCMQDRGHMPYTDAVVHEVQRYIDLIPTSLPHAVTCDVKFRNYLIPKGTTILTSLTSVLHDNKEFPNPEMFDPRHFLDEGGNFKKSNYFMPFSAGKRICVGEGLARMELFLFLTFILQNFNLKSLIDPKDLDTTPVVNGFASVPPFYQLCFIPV

[9] = tested on: Canis familiaris; experiment: Blood clearance in orally dosed dog; format: ADME, organism-based, Canis lupus familiaris; conditions: in vivo, po
[10] = organism: Homo sapiens; experiment: Selectivity index, ratio of agonist activity at IP receptor (unknown origin) to pEC50 for partial agonist activity at human EP4 receptor expressed in HEK293-AEQ17 cells; format: cell-based
[11] = target: T1, Cytochrome P450 3A4; experiment: Inhibition of human recombinant CYP3A4 using 7BQ substrate; format: ADME; conditions: human, recombinant enzyme
[12] = Half life in rat at 1 mg/kg, po; format: ADME, organism-based; conditions: in vivo
[13] = Protein binding in human plasma; format: ADME, cell-free; conditions: read-out: PPB
[14] = target: T3, Prostaglandin D2 receptor (Homo sapiens, UniProt Q13258); experiment: Activity at DP1 receptor (unknown origin)
T3 sequence (Q13258 whole entry): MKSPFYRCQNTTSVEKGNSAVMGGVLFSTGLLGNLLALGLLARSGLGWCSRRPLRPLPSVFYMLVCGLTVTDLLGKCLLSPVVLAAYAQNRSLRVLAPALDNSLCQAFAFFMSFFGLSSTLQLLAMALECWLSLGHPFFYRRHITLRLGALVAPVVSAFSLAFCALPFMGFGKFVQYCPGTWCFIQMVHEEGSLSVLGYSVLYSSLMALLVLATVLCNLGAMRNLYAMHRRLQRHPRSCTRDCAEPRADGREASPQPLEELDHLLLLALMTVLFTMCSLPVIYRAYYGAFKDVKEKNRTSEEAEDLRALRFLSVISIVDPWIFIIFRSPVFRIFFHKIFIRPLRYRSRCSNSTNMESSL

- half-life [1]: 8 h
- bioavailability [3]: 112%
- Activity [4]: 14%
- bioavailability [5]: 69%
- INH [6]: > 100 µM
- INH [7]: > 100 µM
- INH [8]: > 100 µM
- clearance [9]: 4 mL/min/kg
- INH [11]: > 100 µM
- half-life [12]: 6 h
- fraction unbound [13]: 0.001
- IC50 [14]: > 31.6 µM
Compound: CCOc1c2c(c(OCC)c3ccccc13)C(=O)N(c1ccc(CC(=O)O)c(F)c1)C2
- Selectivity ratio [2]: > 100
- Selectivity ratio [10]: > 100
